Converted amounts (≈) assume the structure as drawn. “Also recorded” adds a separate entry of the source. Read-outs that look alike come from different tables or passages of the source.
Assays:
MabA [1] = molecular target: T1, MabA (Mycobacterium tuberculosis, UniProt P9WGT3); assay: MabA LC-MS/MS-based enzymatic assay (reduction of acetoacetyl-CoA into HBCoA); type: biochemical; conditions: for IC50: concentration inhibiting 50% of the transformation of acetoacetyl-CoA in HBCoA in the presence of NADPH, LC-MS/MS
T1 sequence (P9WGT3 whole entry, looked up): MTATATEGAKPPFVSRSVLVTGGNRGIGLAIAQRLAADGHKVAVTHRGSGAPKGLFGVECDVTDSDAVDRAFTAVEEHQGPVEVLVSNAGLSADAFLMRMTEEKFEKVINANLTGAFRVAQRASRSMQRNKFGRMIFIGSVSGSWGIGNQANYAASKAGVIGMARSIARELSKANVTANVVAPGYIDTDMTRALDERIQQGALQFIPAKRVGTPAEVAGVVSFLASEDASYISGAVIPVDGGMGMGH

plasma proteins = assay: Plasma protein binding by rapid equilibrium dialysis; conditions: 10% plasma (diluted 1 to 10 in phosphate buffer), pH 7.2
Solubility in PBS pH 7.4 = conditions: PBS pH 7.4, pH 7.4, aqueous buffer, kinetic from dmso stock
MabA [2] = molecular target: T1, MabA; type: binding
[3] = tested on: GFP-expressing M. tuberculosis H37Rv; assay: microbe, parasite or virus in culture; type: cell-based; conditions: Mycobacterium tuberculosis
LogD octanol/PBS pH 7.4 = conditions: octanol/PBS 1/1, pH 7.4
[4] = tested on: GFP-expressing M. tuberculosis H37Rv; design: method as in PMID 32505086; conditions: Middlebrook 7H9 liquid medium with OADC (contains albumin); 5 days; GFP signal; reported previously; cited from earlier work
M. tuberculosis H37Rv = type: cell-based
[5] = Solubility in Sauton medium; type: physicochemical; conditions: aqueous buffer
[6] = tested on: H37Rv carrying pUV15-pHGFP; type: cell-based, M. tuberculosis; conditions: pH 4.5
H37Rv [7] = type: cell-based, M. tuberculosis
H37Rv [8] = type: cell-based, M. tuberculosis; remark: listed apart in the source

Q: Which IC50 (MabA [1]) does the source give for `O=C(O)c1cc(I)ccc1NS(=O)(=O)c1ccc(Cl)c(Cl)c1` [Compound 4, 2-[(3,4-dichlorophenyl)sulfonylamino]-5-iodo-benzoic Acid] here?
A: Its IC50 is 40 µM.

Q: Which IC50 (MabA [1]) does the source give for `O=C(Nc1ccc(I)cc1-c1nnn[nH]1)c1ccc(Cl)c(Cl)c1` [Compound 11, 3,4-dichloro-N-[4-iodo-2-(1H-tetrazol-5-yl)phenyl]benzamide] here?
A: Its IC50 is 24 µM.

Q: With `O=C(Nc1nc2ccccc2cc1C(=O)O)c1ccc(Cl)c(Cl)c1` [Compound 20, 2-[(3,4-dichlorobenzoyl)amino]quinoline-3-carboxylic Acid] as the molecule, how does the “fold reduction in potency” value (MabA [1]) read?
A: The value was 2 fold.

Q: And the IC50 (MabA [1])?
A: Its IC50 is 76 µM.

Q: For `O=C(O)c1cc(Br)ccc1-c1nc(-c2ccc(Cl)c(Cl)c2)no1` [Compound 7, 5-bromo-2-[3-(3,4-dichlorophenyl)-1,2,4-oxadiazol-5-yl]benzoic Acid], which IC50 (MabA [1]) is on record?
A: The IC50 was 102 µM.

Q: Which fraction unbound at 4 h, 10 µM (plasma proteins) does the source give for `O=C(Nc1ccc(I)cc1C(=O)NS(=O)(=O)C(F)(F)F)c1ccc(Cl)c(Cl)c1` [Compound 12, 3,4-dichloro-N-[4-iodo-2-(trifluoromethylsulfonylcarbamoyl)phenyl]benzamide] here?
A: The fraction unbound at 4 h, 10 µM was 0.0002.

Q: What about the IC50 (MabA [1]) of the same molecule?
A: Its IC50 is 35 µM.

Q: And the solubility at 24 h (Solubility in PBS pH 7.4)?
A: Its solubility at 24 h is 180 µM (≈ 102 µg/mL).

Q: What about the “19F- and 1H-NMR signal in the presence of MabA” value (MabA [2]) of the same molecule?
A: The value was “confirmed the direct binding; also recorded: total disappearance of the signal”.

Q: And the MIC90 ([3]; 168 h)?
A: Its MIC90 is 300 µM (≈ 170 µg/mL).

Q: And the logD at 2 h (LogD octanol/PBS pH 7.4)?
A: The logD at 2 h was 4.1.

Q: With `O=C(Nc1cc2ccccc2cc1C(=O)O)c1ccc(Cl)c(Cl)c1` [Compound 19, 3-[(3,4-dichlorobenzoyl)amino]naphthalene-2-carboxylic Acid] as the molecule, how does the IC50 (MabA [1]) read?
A: Its IC50 is 33 µM.

Q: For `O=C(Nc1ccc(Br)cc1C(=O)O)c1ccc(Cl)c(Cl)c1` [Compound 2, 5-bromo-2-[(3,4-dichlorobenzoyl)amino]benzoic Acid], which IC50 (MabA [1]) is on record?
A: Its IC50 is 45 µM.

Q: What about the solubility at 24 h (Solubility in PBS pH 7.4) of the same molecule?
A: Its solubility at 24 h is 181 µM (≈ 70.4 µg/mL).

Q: What about the MIC90 ([3]; 168 h) of the same molecule?
A: Its MIC90 is 100 µM (≈ 38.9 µg/mL).

Q: And the MIC90 [4]?
A: Its MIC90 is 300 µM (≈ 117 µg/mL).

Q: And the logD at 2 h (LogD octanol/PBS pH 7.4)?
A: Its logD at 2 h is 3.

Q: Which results are given for `NNC(=O)c1ccncc1` [isoniazid, reference compound]?
A: effect on mycolic acids synthesis (TLC) (M. tuberculosis H37Rv): decrease in mycolic acids synthesis; MIC ([3]; 168 h): 0.125 µg/mL (≈ 0.911 µM)

Q: For `CO[C@H]1/C=C/O[C@@]2(C)Oc3c(C)c(O)c4c(O)c(c(/C=N/N5CCN(C)CC5)c(O)c4c3C2=O)NC(=O)/C(C)=C\C=C\[C@H](C)[C@H](O)[C@@H](C)[C@@H](O)[C@@H](C)[C@H](OC(C)=O)[C@@H]1C` [rifampicine, reference compound], which MIC ([3]; 168 h) is on record?
A: The MIC was 0.004 µg/mL (≈ 0.00486 µM).

Q: With `O=C(Nc1ccc(I)cc1C(=O)O)c1ccc(Cl)c(Cl)c1` [Compound 1, 2-[(3,4-dichlorobenzoyl)amino]-5-iodo-benzoic acid] as the molecule, how does the fraction unbound at 4 h, 10 µM (plasma proteins) read?
A: The fraction unbound at 4 h, 10 µM was 0.0014.

Q: What about the IC50 (MabA [1]) of the same molecule?
A: The IC50 was 38 ± 6 µM.

Q: And the solubility at 24 h (Solubility in PBS pH 7.4)?
A: The solubility at 24 h was greater than 200 µM.

Q: And the MIC90 [3]?
A: Its MIC90 is 300 µM (≈ 131 µg/mL).

Q: And the MIC90 ([3]; 168 h)?
A: The MIC90 was 100 µM (≈ 43.6 µg/mL).

Q: And the MIC90 [4]?
A: The MIC90 was 300 µM (≈ 131 µg/mL).

Q: What about the logD at 2 h (LogD octanol/PBS pH 7.4) of the same molecule?
A: Its logD at 2 h is 3.4.

Q: For `O=C(Nc1cc(-n2cccn2)ccc1C(=O)O)c1ccc(Cl)c(Cl)c1` [Compound 18, 2-[(3,4-dichlorobenzoyl)amino]-4-pyrazol-1-yl-benzoic Acid], which fraction unbound at 4 h, 10 µM (plasma proteins) is on record?
A: Its fraction unbound at 4 h, 10 µM is less than 0.0001.

Q: And the “effect on mycolic acids synthesis (TLC)” value (M. tuberculosis H37Rv)?
A: The value was “no specific inhibition of mycolic acids”.

Q: What about the “improvement of the activity by a factor” value (MabA [1]) of the same molecule?
A: Its value is 1.6.

Q: What about the IC50 (MabA [1]) of the same molecule?
A: Its IC50 is 23 µM.

Q: And the solubility at 24 h (Solubility in PBS pH 7.4)?
A: The solubility at 24 h was 149 µM (≈ 56.1 µg/mL).

Q: What about the MIC90 ([3]; 168 h) of the same molecule?
A: Its MIC90 is 300 µM (≈ 113 µg/mL).

Q: What about the logD at 2 h (LogD octanol/PBS pH 7.4) of the same molecule?
A: The logD at 2 h was 2.54.

Q: And the solubility [5]?
A: The solubility was greater than 300 µM.

Q: With `CN(C(=O)c1ccc(Cl)c(Cl)c1)c1ccc(I)cc1C(=O)O` [Compound 3, 2-[(3,4-dichlorobenzoyl)-methyl-amino]-5-iodo-benzoic Acid] as the molecule, how does the IC50 (MabA [1]) read?
A: The IC50 was greater than 200 µM.

Q: Which IC50 (MabA [1]) does the source give for `O=C(O)c1cc(Br)ccc1NC(=S)c1ccc(Cl)c(Cl)c1` [Compound 6, 5-bromo-2-[(3,4-dichlorobenzenecarbothioyl)amino]benzoic Acid] here?
A: The IC50 was 39 µM.

Q: Which fraction unbound at 4 h, 10 µM (plasma proteins) does the source give for `O=C(Nc1ccc(C#CC2CC2)cc1C(=O)O)c1ccc(Cl)c(Cl)c1` [Compound 16, 5-(2-cyclopropylethynyl)-2-[(3,4-dichlorobenzoyl)amino]benzoic Acid] here?
A: The fraction unbound at 4 h, 10 µM was 0.0006.

Q: What about the “effect on mycolic acids synthesis (TLC)” value (M. tuberculosis H37Rv) of the same molecule?
A: The value was “no specific inhibition of mycolic acids”.

Q: And the IC50 (MabA [1])?
A: The IC50 was 60 µM.

Q: What about the solubility at 24 h (Solubility in PBS pH 7.4) of the same molecule?
A: Its solubility at 24 h is greater than 200 µM.

Q: What about the “effect on intrabacterial pH” value [6] of the same molecule?
A: The value was “dose-dependent decrease in the intrabacterial pH”.

Q: And the “effect of pH on potency” value (H37Rv [7])?
A: The value was “decreasing pH improved the potency”.

Q: And the MIC90 ([3]; 168 h)?
A: Its MIC90 is 100 µM (≈ 37.4 µg/mL).

Q: And the transcriptional response (H37Rv [8])?
A: The transcriptional response was “downregulation of genes implicated in DNA replication, transcription, translation and growth”.

Q: What about the solubility [5] of the same molecule?
A: The solubility was greater than 300 µM.

Q: With `O=C(Nc1ccccc1C(=O)O)c1ccc(Cl)c(Cl)c1` [Compound 15, 2-[(3,4-dichlorobenzoyl)amino]benzoic Acid] as the molecule, how does the IC50 (MabA [1]) read?
A: Its IC50 is greater than 1000 µM.

Q: With `C#Cc1ccc(C(=O)O)c(NC(=O)c2ccc(Cl)c(Cl)c2)c1` [Compound 17, 2-[(3,4-dichlorobenzoyl)amino]-4-ethynyl-benzoic Acid] as the molecule, how does the “fold reduction in potency” value (MabA [1]) read?
A: Its value is 2 fold.

Q: And the IC50 (MabA [1])?
A: Its IC50 is 77 µM.

Q: With `O=C(O)c1cc(Br)ccc1C(=O)Nc1ccc(Cl)c(Cl)c1` [Compound 5, 5-bromo-2-[(3,4-dichlorophenyl)carbamoyl]benzoic Acid] as the molecule, how does the IC50 (MabA [1]) read?
A: The IC50 was 268 µM.

Q: For `O=C(Nc1ccc(I)cc1CO)c1ccc(Cl)c(Cl)c1` [Compound 8, 3,4-dichloro-N-[2-(hydroxymethyl)-4-iodo-phenyl]benzamide], which IC50 (MabA [1]) is on record?
A: Its IC50 is greater than 333 µM.

Q: With `CCc1cc(C(N)=S)ccn1` [ethionamide, reference compound] as the molecule, how does the MIC ([3]; 168 h) read?
A: Its MIC is 2 µg/mL (≈ 12 µM).

Q: For `N#Cc1cc(I)ccc1NC(=O)c1ccc(Cl)c(Cl)c1` [Compound 10, 3,4-dichloro-N-(2-cyano-4-iodo-phenyl)benzamide], which IC50 (MabA [1]) is on record?
A: Its IC50 is greater than 1000 µM.

Q: With `CS(=O)(=O)NC(=O)c1cc(I)ccc1NC(=O)c1ccc(Cl)c(Cl)c1` [Compound 13, 3,4-dichloro-N-[4-iodo-2-(methylsulfonylcarbamoyl)phenyl]benzamide] as the molecule, how does the IC50 (MabA [1]) read?
A: Its IC50 is 28 µM.

Q: For `O=C(Nc1cc(Br)ccc1C(=O)O)c1ccc(Cl)c(Cl)c1` [Compound 14, 4-bromo-2-[(3,4-dichlorobenzoyl)amino]benzoic Acid], which IC50 (MabA [1]) is on record?
A: The IC50 was 34 µM.

Q: Which IC50 (MabA [1]) does the source give for `NC(=O)c1cc(I)ccc1NC(=O)c1ccc(Cl)c(Cl)c1` [Compound 9, N-(2-carbamoyl-4-iodo-phenyl)-3,4-dichloro-benzamide] here?
A: The IC50 was greater than 500 µM.
